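Method: 48-hour compound exposure of cells in 96-well plates, five concentrations, linear interpolation of endpoints. GI50 = concentration required for 50% inhibition of growth.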 Active and inactive are the calls of the source. No stated cut-off is given here; in the data, active = GI50 up to about 1.1 µM and inactive = higher. Peptide text beside a SMILES is read from it. * marks the point of attachment. Boc = CC(C)(C)OC(=O)*
How the values were obtained:
Experiment in all cases: NCI-60 cell line screen, 48 h
SN12C = system: SN12C
SK-OV-3 = system: SK-OV-3
HCT-15 = system: HCT-15
SW-620 = system: SW-620
NCI-H522 = system: NCI-H522
SK-MEL-28 = system: SK-MEL-28
UACC-257 = system: UACC-257
DLD-1 = system: DLD-1
HOP-62 = system: HOP-62
K562 = system: K562
UO-31 = system: UO-31
DMS-273 = system: DMS-273
NCI-H460 = system: NCI-H460
SF-295 = system: SF-295
SF-539 = system: SF-539
SNB-75 = system: SNB-75
MCF7 = system: MCF7
BT-549 = system: BT-549
A498 = system: A498

Compound | GI50 (SN12C) | GI50 (SK-OV-3) | GI50 (HCT-15) | GI50 (SW-620) | GI50 (NCI-H522) | GI50 (SK-MEL-28) | GI50 (UACC-257) | GI50 (DLD-1) | GI50 (HOP-62) | GI50 (K562) | GI50 (UO-31) | GI50 (DMS-273) | GI50 (NCI-H460) | GI50 (SF-295) | GI50 (SF-539) | GI50 (SNB-75) | GI50 (MCF7) | GI50 (BT-549) | GI50 (A498)
O=C1Nc2c(ccc(Cl)c2I)C1=O | 17.1 µM (inactive) | 18.5 µM (inactive) | 18.9 µM | 18.7 µM (inactive) | 15.6 µM (inactive) | 18.4 µM (inactive) | > 10 µM (inactive) | 18.5 µM (inactive) | 20.8 µM (inactive) | 23.8 µM (inactive) | 18.2 µM (inactive) | 17 µM (inactive) | 17.9 µM (inactive) | 19.2 µM (inactive) |  |  |  |  | 
NCCCOc1ccc([N+](=O)[O-])cc1Cl |  |  | > 100 µM | > 100 µM (inactive) | 5.62 µM (inactive) | > 100 µM (inactive) | > 100 µM (inactive) | > 100 µM (inactive) | 71.1 µM (inactive) | 85.9 µM (inactive) | 81.8 µM (inactive) | > 100 µM (inactive) | > 100 µM (inactive) | > 100 µM (inactive) | > 100 µM (inactive) | 61.1 µM (inactive) |  |  | 
COC(=O)C1=C(\c2ccccc2)c2ccccc2C(=O)N(C2CCCCC2)/C=C\1 | 28.3 µM (inactive) | 74.1 µM (inactive) | 24.1 µM | 28.6 µM (inactive) | 36.4 µM (inactive) | 17.9 µM (inactive) | 12.5 µM (inactive) |  | 21.3 µM (inactive) | 4.59 µM (inactive) | 22.6 µM (inactive) |  | 16.1 µM (inactive) | 28 µM (inactive) | 24 µM (inactive) | 65.6 µM (inactive) | 19.8 µM (inactive) | 23.1 µM (inactive) | 30.1 µM (inactive)
O=[N+]([O-])c1ccccc1S(=O)(=O)c1cc(O)cc2c1NCCC2 | 21.1 µM (inactive) | 17.9 µM (inactive) | 19.6 µM | 8.41 µM (inactive) | 7.5 µM (inactive) | 18.7 µM (inactive) | 13.5 µM (inactive) |  | 21 µM (inactive) | 2.68 µM (inactive) | 15.5 µM (inactive) |  | 23.4 µM (inactive) | 25.3 µM (inactive) | 19.1 µM (inactive) | 14.5 µM (inactive) | 7.45 µM (inactive) | 13.2 µM (inactive) | 13.9 µM (inactive)
COc1ccc(/C=C2\CCCc3ccccc3C2=O)cc1 | 0.117 µM (active) | 0.119 µM (active) | 0.0723 µM | 0.378 µM (active) | < 0.0218 µM (active) | 3.83 µM (inactive) | 3.13 µM (inactive) |  | 0.187 µM (active) | 0.33 µM (active) | 1.64 µM (inactive) |  | 0.0893 µM (active) | 0.026 µM (active) | 0.287 µM (active) | 0.0649 µM (active) | 1.27 µM (inactive) | 0.143 µM (active) | 0.104 µM (active)
C[C@H](CCC(=O)O)[C@H]1CC[C@H]2[C@@H]3[C@@H](O)C[C@@H]4C[C@H](O)CC[C@]4(C)[C@H]3CC[C@]12C | > 100 µM (inactive) | > 100 µM (inactive) | 67.3 µM | > 100 µM (inactive) | > 100 µM (inactive) | 98.6 µM (inactive) | 92.9 µM (inactive) |  | > 100 µM (inactive) | 69.8 µM (inactive) | 57.5 µM (inactive) |  | 58.2 µM (inactive) | 53.6 µM (inactive) | > 100 µM (inactive) | > 100 µM (inactive) | 86.7 µM (inactive) | 38.8 µM (inactive) | > 100 µM (inactive)
CC(NC(=O)OC(C)(C)C)C(=O)NC(Cc1ccccc1)C(=O)NCC(=O)O (stereo not drawn) (Boc-Ala-Phe-Gly-OH; configuration not given here) | > 100 µM (inactive) | > 100 µM (inactive) | > 100 µM | > 100 µM (inactive) | > 100 µM (inactive) | > 100 µM (inactive) | > 100 µM (inactive) |  | > 100 µM (inactive) | > 100 µM (inactive) | > 100 µM (inactive) |  | > 100 µM (inactive) | > 100 µM (inactive) | > 100 µM (inactive) | > 100 µM (inactive) | > 100 µM (inactive) | > 100 µM (inactive) | > 100 µM (inactive)
CC(C)(C)OC(=O)NCCC1SC2C=CC1C2 (configuration not stated) | > 100 µM (inactive) | > 100 µM (inactive) | > 100 µM | > 100 µM (inactive) | > 100 µM (inactive) | > 100 µM (inactive) | > 100 µM (inactive) |  | > 100 µM (inactive) | > 100 µM (inactive) | > 100 µM (inactive) |  | > 100 µM (inactive) | > 100 µM (inactive) | > 100 µM (inactive) | > 100 µM (inactive) | > 100 µM (inactive) | > 100 µM (inactive) | > 100 µM (inactive)
C/C=C1/CN2CCC34c5ccccc5N(C)C23C2CC1C4(C(=O)OC)C(OC(C)=O)O2 (configuration not stated) | > 100 µM (inactive) | > 100 µM (inactive) | > 100 µM | > 100 µM (inactive) | > 100 µM (inactive) | > 100 µM (inactive) | > 100 µM (inactive) |  | > 100 µM (inactive) | > 100 µM (inactive) | > 100 µM (inactive) |  | > 100 µM (inactive) | > 100 µM (inactive) | > 100 µM (inactive) | > 100 µM (inactive) | > 100 µM (inactive) | > 100 µM (inactive) | > 100 µM (inactive)
CN(C)CCOc1ccc2[nH]c(C(=O)N3CC(CCl)c4c3cc(NC(=O)OCc3ccc([N+](=O)[O-])cc3)c3ccccc43)cc2c1 (configuration not stated) | 1.5 µM (inactive) | 1.66 µM (inactive) | 1.55 µM | 1.19 µM (inactive) | 1.12 µM (inactive) | 1.64 µM (inactive) | 14.6 µM (inactive) |  | 1.47 µM (inactive) | 0.237 µM (active) | 1.28 µM (inactive) |  | 4.05 µM (inactive) | 1.6 µM (inactive) | 1.69 µM (inactive) | 1.63 µM (inactive) | 0.211 µM (active) | 1.85 µM (inactive) | 1.85 µM (inactive)
O=C(O)C1=CNC(C(=O)O)=NN1 | > 100 µM (inactive) | > 100 µM (inactive) | > 100 µM | > 100 µM (inactive) | > 100 µM (inactive) | > 100 µM (inactive) | > 100 µM (inactive) | > 100 µM (inactive) | > 100 µM (inactive) | > 100 µM (inactive) | > 100 µM (inactive) |  | > 100 µM (inactive) | > 100 µM (inactive) | > 100 µM (inactive) | > 100 µM (inactive) |  |  | 
Cc1ccc(Nc2c(C#N)[n+]([O-])c3cc(Cl)ccc3[n+]2[O-])cc1 | > 33.2 µM (inactive) | 61.7 µM (inactive) | 5.15 µM | 37.5 µM (inactive) | 11.4 µM (inactive) | > 100 µM (inactive) | > 76.7 µM (inactive) |  | 43.1 µM (inactive) | 11 µM (inactive) | 82.4 µM (inactive) |  | 9.31 µM (inactive) | 13.6 µM (inactive) | 26.6 µM (inactive) | 39.5 µM (inactive) | 15.3 µM (inactive) | 9.46 µM (inactive) | > 100 µM (inactive)
COc1cc(/C=C2\C(=O)N(c3cccc(NC(C)=O)c3)C(c3ccccc3)S2(=O)=O)cc(OC)c1OC (configuration not stated) | 67.5 µM (inactive) | > 100 µM (inactive) | 71.4 µM | 56.2 µM (inactive) | 28.4 µM (inactive) | 91.2 µM (inactive) | > 100 µM (inactive) |  | > 100 µM (inactive) | 31.3 µM (inactive) | 50.5 µM (inactive) |  | 67.5 µM (inactive) | 50.9 µM (inactive) | 48.3 µM (inactive) | 62.7 µM (inactive) | 31 µM (inactive) | 67.3 µM (inactive) | > 100 µM (inactive)
Cc1c2oc3c(C)cnc(C(=O)NC4C(=O)NC(C(C)C)C(=O)N5CCCC5C(=O)N(C)CC(=O)N(C)C(C(C)C)C(=O)OC4C)c3nc-2c(C(=O)NC2C(=O)NC(C(C)C)C(=O)N3CCCC3C(=O)N(C)CC(=O)N(C)C(C(C)C)C(=O)OC2C)c(N)c1=O (configuration not stated) | 1.36 µM (inactive) | 5.6 µM (inactive) | 21 µM | 0.346 µM (active) | 0.673 µM (active) | 1.67 µM (inactive) | 4.58 µM (inactive) |  | 3.05 µM (inactive) | 0.231 µM (active) | 14.2 µM (inactive) |  | 1.03 µM (active) | 5.45 µM (inactive) | 1.42 µM (inactive) | 6.41 µM (inactive) | 0.805 µM (active) | 7.62 µM (inactive) | 6.18 µM (inactive)
O=C(c1cccs1)N(C(=O)N1CCN(c2ccccc2)CC1)S(=O)(=O)c1ccccc1 | 17.5 µM (inactive) | 46.6 µM (inactive) | 28.5 µM | 31.5 µM (inactive) | 15.6 µM (inactive) | 22.4 µM (inactive) | 23.8 µM (inactive) |  | 29.6 µM (inactive) | 25.1 µM (inactive) | 18.5 µM (inactive) |  | 28.2 µM (inactive) | 28.1 µM (inactive) | 17.9 µM (inactive) | 14.2 µM (inactive) | 27.4 µM (inactive) | 28.2 µM (inactive) | 62.2 µM (inactive)
C=C1[C@@H]2CCC(C)(C)[C@H]1CCC(=O)[C@@H]2C(=O)OC | > 100 µM (inactive) |  | > 100 µM | > 100 µM (inactive) |  | > 100 µM (inactive) | > 100 µM (inactive) |  | > 100 µM (inactive) | > 100 µM (inactive) | > 100 µM (inactive) | > 100 µM (inactive) | > 100 µM (inactive) | > 100 µM (inactive) | > 100 µM (inactive) |  |  |  | > 100 µM (inactive)
CCCC#CCOC(=O)c1cc([N+](=O)[O-])cc([N+](=O)[O-])c1 | > 100 µM (inactive) | > 100 µM (inactive) | > 100 µM | > 100 µM (inactive) | 43.4 µM (inactive) | > 100 µM (inactive) | > 100 µM (inactive) |  | > 100 µM (inactive) | > 100 µM (inactive) | > 100 µM (inactive) |  | > 100 µM (inactive) | > 100 µM (inactive) | > 100 µM (inactive) | > 100 µM (inactive) | > 100 µM (inactive) | > 100 µM (inactive) | > 100 µM (inactive)

Source: ChEMBL document CHEMBL1201862, “PubChem BioAssay data set” (2004)
